Results: patent publication US11414379B2, “SPAK kinase inhibitors as neuroprotective agents” (United States Government as represented by the Department …, priority 2018, dated 2022)

Key:
Test in all cases: Kinase panel (Dundee profiling)
Type in all cases: biochemical
Conditions in all cases: read-out: % residual kinase activity
NEK2a = NEK2a (Homo sapiens, UniProt P51955)
Summary of the method: (§1)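 Testing used recombinant enzymes in a radioactive activity assay at two compound levels, 10 and 1 μM. Data give remaining activity as a percentage of vehicle (DMSO), averaged over n=3 with SEM.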

CK1γ2 = CK1γ2 (Homo sapiens, UniProt P78368)
Chain of CK1γ2 (P78368 whole entry): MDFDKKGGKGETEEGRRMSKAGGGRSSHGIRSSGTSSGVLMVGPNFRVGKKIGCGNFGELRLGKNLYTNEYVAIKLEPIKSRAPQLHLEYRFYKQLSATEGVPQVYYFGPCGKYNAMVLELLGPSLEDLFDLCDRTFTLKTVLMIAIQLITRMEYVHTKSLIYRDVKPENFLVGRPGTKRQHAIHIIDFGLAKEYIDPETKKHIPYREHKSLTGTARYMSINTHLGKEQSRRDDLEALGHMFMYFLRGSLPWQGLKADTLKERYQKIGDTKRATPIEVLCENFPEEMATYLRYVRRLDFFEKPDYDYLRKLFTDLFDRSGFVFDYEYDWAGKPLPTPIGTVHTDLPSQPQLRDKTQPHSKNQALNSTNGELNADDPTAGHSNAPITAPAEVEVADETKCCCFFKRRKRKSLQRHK
Summary of the method: as §1

GSK3b = GSK3b (Homo sapiens, UniProt P49841)
Summary of the method: as §1

MARK1 = MARK1 (Homo sapiens, UniProt Q9P0L2)
Summary of the method: as §1

JNK2 = JNK2 (Homo sapiens, UniProt P45984)
Summary of the method: as §1

HIPK3 = HIPK3 (Homo sapiens, UniProt Q9H422)
Summary of the method: as §1

BRSK1 = BRSK1 (Homo sapiens, UniProt Q8TDC3)
Summary of the method: as §1

PIM1 = PIM1 (Homo sapiens, UniProt P11309)
Chain of PIM1 (P11309 whole entry, species assumed): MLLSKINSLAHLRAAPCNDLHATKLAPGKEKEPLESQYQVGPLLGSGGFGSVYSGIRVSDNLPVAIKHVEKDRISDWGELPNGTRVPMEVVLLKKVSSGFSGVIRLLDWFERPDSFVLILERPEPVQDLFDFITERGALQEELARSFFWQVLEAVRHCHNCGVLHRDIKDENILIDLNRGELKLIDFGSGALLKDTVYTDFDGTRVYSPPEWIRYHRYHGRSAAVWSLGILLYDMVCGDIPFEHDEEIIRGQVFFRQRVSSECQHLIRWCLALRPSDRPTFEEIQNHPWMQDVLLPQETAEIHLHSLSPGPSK
Summary of the method: as §1

GCK = GCK (Homo sapiens, UniProt Q12851)
Chain of GCK (Q12851 whole entry): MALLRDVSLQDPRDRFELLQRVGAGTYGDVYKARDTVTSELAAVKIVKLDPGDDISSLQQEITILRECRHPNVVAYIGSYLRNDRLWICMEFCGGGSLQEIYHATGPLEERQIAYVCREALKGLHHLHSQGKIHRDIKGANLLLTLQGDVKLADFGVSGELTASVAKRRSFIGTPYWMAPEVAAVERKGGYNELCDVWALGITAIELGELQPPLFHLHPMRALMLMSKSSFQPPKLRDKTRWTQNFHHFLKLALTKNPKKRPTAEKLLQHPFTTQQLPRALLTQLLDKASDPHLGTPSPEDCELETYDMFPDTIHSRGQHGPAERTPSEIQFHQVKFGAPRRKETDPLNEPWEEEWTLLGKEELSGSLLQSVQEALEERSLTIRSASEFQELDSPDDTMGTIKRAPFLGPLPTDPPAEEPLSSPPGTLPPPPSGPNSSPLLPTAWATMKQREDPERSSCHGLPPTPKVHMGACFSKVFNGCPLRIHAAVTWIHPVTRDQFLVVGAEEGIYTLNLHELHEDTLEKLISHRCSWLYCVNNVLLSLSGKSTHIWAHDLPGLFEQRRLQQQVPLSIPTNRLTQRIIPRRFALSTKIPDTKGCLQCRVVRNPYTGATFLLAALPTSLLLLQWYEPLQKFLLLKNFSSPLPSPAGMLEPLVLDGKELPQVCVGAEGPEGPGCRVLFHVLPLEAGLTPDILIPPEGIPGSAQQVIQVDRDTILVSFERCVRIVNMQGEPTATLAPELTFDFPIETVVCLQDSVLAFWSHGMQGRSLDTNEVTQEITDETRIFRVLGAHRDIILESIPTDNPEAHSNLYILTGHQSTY
Summary of the method: as §1

EPH-B3 = EPH-B3 (Homo sapiens, UniProt P54753)
Summary of the method: as §1

MARK2 = MARK2 (Homo sapiens, UniProt Q7KZI7)
Summary of the method: as §1

Aurora B = Aurora B (Homo sapiens, UniProt Q96GD4)
Chain of Aurora B (Q96GD4 whole entry): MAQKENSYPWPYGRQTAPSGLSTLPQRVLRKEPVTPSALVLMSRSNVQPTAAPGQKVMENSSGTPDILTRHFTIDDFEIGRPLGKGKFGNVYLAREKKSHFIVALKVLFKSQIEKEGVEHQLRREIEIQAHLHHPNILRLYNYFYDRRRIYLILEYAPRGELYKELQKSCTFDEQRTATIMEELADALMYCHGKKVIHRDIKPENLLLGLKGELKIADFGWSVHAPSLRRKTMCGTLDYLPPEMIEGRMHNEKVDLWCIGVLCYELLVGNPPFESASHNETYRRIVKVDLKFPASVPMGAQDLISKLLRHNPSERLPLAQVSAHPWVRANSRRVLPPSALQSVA
Summary of the method: as §1

BRK = BRK (Homo sapiens, UniProt Q13882)
Chain of BRK (Q13882 whole entry, species assumed): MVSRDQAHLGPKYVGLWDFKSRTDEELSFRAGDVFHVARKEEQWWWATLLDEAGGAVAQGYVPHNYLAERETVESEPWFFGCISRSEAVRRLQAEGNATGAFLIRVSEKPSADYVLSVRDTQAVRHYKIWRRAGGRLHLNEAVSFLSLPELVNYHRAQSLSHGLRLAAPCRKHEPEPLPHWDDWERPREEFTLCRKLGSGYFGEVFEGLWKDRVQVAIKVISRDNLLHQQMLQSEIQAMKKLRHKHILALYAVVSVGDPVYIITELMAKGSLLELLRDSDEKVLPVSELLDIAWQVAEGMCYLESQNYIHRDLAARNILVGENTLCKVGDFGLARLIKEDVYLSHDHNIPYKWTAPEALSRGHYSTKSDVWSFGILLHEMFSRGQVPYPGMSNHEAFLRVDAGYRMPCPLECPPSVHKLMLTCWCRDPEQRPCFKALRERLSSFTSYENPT
Summary of the method: as §1

MPSK1 = MPSK1 (Homo sapiens, UniProt O75716)
Summary of the method: as §1

BTK = BTK (Homo sapiens, UniProt Q06187)
Summary of the method: as §1

ERK5 = ERK5 (Homo sapiens, UniProt Q13164)
Summary of the method: as §1

IRR = IRR (Homo sapiens, UniProt P14616)
Summary of the method: as §1

TTK = TTK (Homo sapiens, UniProt P33981)
Summary of the method: as §1

MKK2 = MKK2 (Homo sapiens, UniProt P36507)
Summary of the method: as §1

VEG-FR = VEG-FR (Homo sapiens, UniProt P17948)
Summary of the method: as §1

DYRK2 = DYRK2 (Homo sapiens, UniProt Q92630)
Summary of the method: as §1

Aurora A = Aurora A (Homo sapiens, UniProt O14965)
Summary of the method: as §1

BRSK2 = BRSK2 (Homo sapiens, UniProt Q8IWQ3)
Chain of BRSK2 (Q8IWQ3 whole entry, species assumed): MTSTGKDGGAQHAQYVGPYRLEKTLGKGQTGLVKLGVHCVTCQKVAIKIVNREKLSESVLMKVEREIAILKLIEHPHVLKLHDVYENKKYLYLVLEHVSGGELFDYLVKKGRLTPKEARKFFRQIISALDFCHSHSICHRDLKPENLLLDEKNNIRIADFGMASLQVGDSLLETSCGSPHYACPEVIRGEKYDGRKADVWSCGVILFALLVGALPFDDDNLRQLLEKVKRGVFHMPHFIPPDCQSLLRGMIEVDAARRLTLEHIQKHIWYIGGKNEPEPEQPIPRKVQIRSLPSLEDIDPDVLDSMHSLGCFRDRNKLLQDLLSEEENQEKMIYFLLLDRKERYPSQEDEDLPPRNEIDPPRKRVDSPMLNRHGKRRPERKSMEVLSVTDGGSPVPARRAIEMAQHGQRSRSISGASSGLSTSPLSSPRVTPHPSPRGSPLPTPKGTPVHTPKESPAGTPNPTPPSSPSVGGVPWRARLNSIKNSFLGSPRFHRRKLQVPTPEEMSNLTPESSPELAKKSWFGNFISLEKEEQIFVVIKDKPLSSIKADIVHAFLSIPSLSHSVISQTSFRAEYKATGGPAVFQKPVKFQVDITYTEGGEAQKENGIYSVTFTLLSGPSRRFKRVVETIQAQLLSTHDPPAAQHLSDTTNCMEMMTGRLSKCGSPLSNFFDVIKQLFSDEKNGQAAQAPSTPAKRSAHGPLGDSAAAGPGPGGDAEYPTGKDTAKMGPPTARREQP
Summary of the method: as §1

EIF2AK3 = EIF2AK3 (Homo sapiens, UniProt Q9NZJ5)
Summary of the method: as §1

PRK2 = PRK2 (Homo sapiens, UniProt Q16513)
Summary of the method: as §1

FGF-R1 = FGF-R1 (Homo sapiens, UniProt P11362)
Summary of the method: as §1

EPH-B1 = EPH-B1 (Homo sapiens, UniProt P54762)
Chain of EPH-B1 (P54762 18-984, species assumed): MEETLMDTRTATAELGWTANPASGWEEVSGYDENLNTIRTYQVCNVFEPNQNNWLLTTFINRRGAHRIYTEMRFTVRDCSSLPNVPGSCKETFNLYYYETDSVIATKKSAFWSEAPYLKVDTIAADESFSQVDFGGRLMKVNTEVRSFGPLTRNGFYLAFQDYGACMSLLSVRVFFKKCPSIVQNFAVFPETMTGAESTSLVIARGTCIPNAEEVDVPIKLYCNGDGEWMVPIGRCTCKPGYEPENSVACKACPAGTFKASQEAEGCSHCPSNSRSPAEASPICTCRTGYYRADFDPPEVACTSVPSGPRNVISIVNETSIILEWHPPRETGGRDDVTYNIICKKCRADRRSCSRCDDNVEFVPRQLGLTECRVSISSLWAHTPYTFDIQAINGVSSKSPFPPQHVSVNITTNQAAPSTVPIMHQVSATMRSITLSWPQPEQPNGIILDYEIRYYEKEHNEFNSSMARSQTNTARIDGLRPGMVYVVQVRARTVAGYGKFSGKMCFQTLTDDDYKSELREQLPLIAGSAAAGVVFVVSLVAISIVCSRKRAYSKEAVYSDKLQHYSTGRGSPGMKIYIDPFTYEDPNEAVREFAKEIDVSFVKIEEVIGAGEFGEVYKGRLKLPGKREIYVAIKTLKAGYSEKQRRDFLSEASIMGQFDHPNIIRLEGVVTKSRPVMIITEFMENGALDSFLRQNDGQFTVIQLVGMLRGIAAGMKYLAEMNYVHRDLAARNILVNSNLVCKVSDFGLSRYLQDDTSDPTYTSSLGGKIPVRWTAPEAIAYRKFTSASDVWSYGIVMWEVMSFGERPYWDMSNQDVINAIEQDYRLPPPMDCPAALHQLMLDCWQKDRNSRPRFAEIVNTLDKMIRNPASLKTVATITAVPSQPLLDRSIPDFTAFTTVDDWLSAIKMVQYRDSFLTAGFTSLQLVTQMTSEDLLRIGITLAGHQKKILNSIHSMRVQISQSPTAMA
Summary of the method: as §1

PINK = PINK (Tribolium castaneum, UniProt D6WMX4)
Summary of the method: as §1

ERK8 = ERK8 (Homo sapiens, UniProt Q8TD08)
Summary of the method: as §1

MARK3 = MARK3 (Homo sapiens, UniProt P27448)
Chain of MARK3 (P27448 whole entry, species assumed): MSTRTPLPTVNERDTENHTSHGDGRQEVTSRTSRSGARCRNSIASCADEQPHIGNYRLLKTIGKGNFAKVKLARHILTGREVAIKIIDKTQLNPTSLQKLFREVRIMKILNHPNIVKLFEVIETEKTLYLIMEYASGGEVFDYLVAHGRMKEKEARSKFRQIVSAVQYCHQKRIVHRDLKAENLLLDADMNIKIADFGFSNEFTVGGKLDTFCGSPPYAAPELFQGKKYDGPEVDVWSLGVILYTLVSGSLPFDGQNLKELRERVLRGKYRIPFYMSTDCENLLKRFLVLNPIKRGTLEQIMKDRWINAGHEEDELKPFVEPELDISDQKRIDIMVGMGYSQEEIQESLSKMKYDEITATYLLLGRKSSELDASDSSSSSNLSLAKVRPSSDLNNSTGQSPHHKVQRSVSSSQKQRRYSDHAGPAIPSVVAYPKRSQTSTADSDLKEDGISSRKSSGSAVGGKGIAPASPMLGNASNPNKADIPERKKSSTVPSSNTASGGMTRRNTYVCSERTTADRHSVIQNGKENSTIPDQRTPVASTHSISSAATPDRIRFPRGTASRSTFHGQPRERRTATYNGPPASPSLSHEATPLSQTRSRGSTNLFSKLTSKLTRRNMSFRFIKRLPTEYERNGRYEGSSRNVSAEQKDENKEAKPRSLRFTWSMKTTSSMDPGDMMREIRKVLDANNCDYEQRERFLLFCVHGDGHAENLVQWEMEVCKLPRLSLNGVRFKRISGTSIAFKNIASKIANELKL
Summary of the method: as §1

PKA = PKA (Homo sapiens, UniProt P17612)
Summary of the method: as §1

OSR1 = OSR1 (Homo sapiens, UniProt O95747)
Summary of the method: as §1

`Cc1cc(C(C#N)c2ccc(Cl)cc2)c(Cl)cc1NC(=O)c1cc(Cl)ccc1O` (stereo not shown) [ZT-1a, 5-chloro-N-(5-chloro-4-((4-chlorophenyl)(cyano)methyl)-2-methylphenyl)-2-hydroxy-benzamide] gave a remaining activity at 1 µM (NEK2a; 1 μM) of 85 ± 12%, a remaining activity at 10 µM (NEK2a; 10 μM) of 91 ± 6% and a remaining activity at 1 µM (CK1γ2; 1 μM) of 112 ± 12%. It also gave a remaining activity at 10 µM (CK1γ2; 10 μM) of 124 ± 23%, a remaining activity at 1 µM (GSK3b; 1 μM) of 39 ± 4% and a remaining activity at 10 µM (GSK3b; 10 μM) of 38 ± 12%. For the same molecule, the remaining activity at 1 µM (MARK1; 1 μM) was 104 ± 16%, the remaining activity at 10 µM (MARK1; 10 μM) was 91 ± 5% and the remaining activity at 1 µM (JNK2; 1 μM) was 102 ± 2%. It also gave a remaining activity at 10 µM (JNK2; 10 μM) of 147 ± 51%, a remaining activity at 1 µM (HIPK3; 1 μM) of 84 ± 3% and a remaining activity at 10 µM (HIPK3; 10 μM) of 76 ± 2%. It also gave a remaining activity at 1 µM (BRSK1; 1 μM) of 108 ± 14%, a remaining activity at 10 µM (BRSK1; 10 μM) of 88 ± 22% and a remaining activity at 1 µM (PIM1; 1 μM) of 108 ± 19%. It also gave a remaining activity at 10 µM (PIM1; 10 μM) of 101 ± 8%, a remaining activity at 1 µM (GCK; 1 μM) of 112 ± 4% and a remaining activity at 10 µM (GCK; 10 μM) of 97 ± 3%. For the same molecule, the remaining activity at 1 µM (EPH-B3; 1 μM) was 88 ± 6%, the remaining activity at 10 µM (EPH-B3; 10 μM) was 84 ± 6% and the remaining activity at 1 µM (MARK2; 1 μM) was 103 ± 8%. It also gave a remaining activity at 10 µM (MARK2; 10 μM) of 89 ± 15%, a remaining activity at 1 µM (Aurora B; 1 μM) of 119 ± 6% and a remaining activity at 10 µM (Aurora B; 10 μM) of 92 ± 15%. For the same molecule, the remaining activity at 1 µM (BRK; 1 μM) was 116 ± 12%, the remaining activity at 10 µM (BRK; 10 μM) was 103 ± 2% and the remaining activity at 1 µM (MPSK1; 1 μM) was 110 ± 6%. It also gave a remaining activity at 10 µM (MPSK1; 10 μM) of 105 ± 2%, a remaining activity at 1 µM (BTK; 1 μM) of 113 ± 1% and a remaining activity at 10 µM (BTK; 10 μM) of 73 ± 2%. For the same molecule, the remaining activity at 1 µM (ERK5; 1 μM) was 120 ± 9%, the remaining activity at 10 µM (ERK5; 10 μM) was 114 ± 5% and the remaining activity at 1 µM (IRR; 1 μM) was 105 ± 5%. It also gave a remaining activity at 10 µM (IRR; 10 μM) of 95 ± 4%, a remaining activity at 1 µM (TTK; 1 μM) of 104 ± 2% and a remaining activity at 10 µM (TTK; 10 μM) of 91 ± 5%. It also gave a remaining activity at 1 µM (MKK2; 1 μM) of 126 ± 2%, a remaining activity at 10 µM (MKK2; 10 μM) of 81 ± 27% and a remaining activity at 1 µM (VEG-FR; 1 μM) of 113 ± 10%. The remaining activity at 10 µM (VEG-FR; 10 μM) was 88 ± 28%, the remaining activity at 1 µM (DYRK2; 1 μM) was 111 ± 15% and the remaining activity at 10 µM (DYRK2; 10 μM) was 97 ± 10%. It also gave a remaining activity at 1 µM (Aurora A; 1 μM) of 73 ± 19%, a remaining activity at 10 µM (Aurora A; 10 μM) of 65 ± 1% and a remaining activity at 1 µM (BRSK2; 1 μM) of 115 ± 14%. For the same molecule, the remaining activity at 10 µM (BRSK2; 10 μM) was 104%, the remaining activity at 1 µM (EIF2AK3; 1 μM) was 114 ± 2% and the remaining activity at 10 µM (EIF2AK3; 10 μM) was 100 ± 3%. The remaining activity at 1 µM (PRK2; 1 μM) was 118 ± 4%, the remaining activity at 10 µM (PRK2; 10 μM) was 120 ± 7% and the remaining activity at 1 µM (FGF-R1; 1 μM) was 93 ± 6%. The remaining activity at 10 µM (FGF-R1; 10 μM) was 101 ± 15%, the remaining activity at 1 µM (EPH-B1; 1 μM) was 77 ± 15% and the remaining activity at 10 µM (EPH-B1; 10 μM) was 80 ± 19%. For the same molecule, the remaining activity at 1 µM (PINK; 1 μM) was 101 ± 13%, the remaining activity at 10 µM (PINK; 10 μM) was 59 ± 4% and the remaining activity at 1 µM (ERK8; 1 μM) was 104 ± 11%. The remaining activity at 10 µM (ERK8; 10 μM) was 63 ± 3%, the remaining activity at 1 µM (MARK3; 1 μM) was 71 ± 6% and the remaining activity at 10 µM (MARK3; 10 μM) was 68 ± 8%. It also gave a remaining activity at 1 µM (PKA; 1 μM) of 80 ± 11%, a remaining activity at 10 µM (PKA; 10 μM) of 50 ± 2% and a remaining activity at 1 µM (OSR1; 1 μM) of 106 ± 9%. It also gave a remaining activity at 10 µM (OSR1; 10 μM) of 98 ± 3%.
